In the supplement of paper PMC4862054:

Columns and labels:
Test in all cases: normalised viability (% of control), CellTiter-Blue; higher = more viable cells (about 100 = DMSO control)
MDA-MB-453 [1] = settings: 1000 nM; incubation time: 72 h
Method: (§1)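 DSRT, CellTiter-Blue viability, 72 h incubation. Signal is normalised to DMSO and benzethonium chloride controls. Value is the normalised response at dose 7.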

CAL-148 [2] = settings: 1000 nM; incubation time: 72 h
Method: as §1

CAL-85-1 [3] = settings: 1000 nM; incubation time: 72 h
Method: as §1

DU-4475 [4] = settings: 1000 nM; incubation time: 72 h
Method: as §1

HDQ-P1 [5] = settings: 1000 nM; incubation time: 72 h
Method: as §1

CAL-51 [6] = settings: 1000 nM; incubation time: 72 h
Method: as §1

MDA-MB-453 [7] = settings: 10000 nM; incubation time: 72 h
Method: (§2)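 DSRT, CellTiter-Blue viability, 72 h incubation. Signal is normalised to DMSO and benzethonium chloride controls. Value is the normalised response at dose 9.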

CAL-148 [8] = settings: 10000 nM; incubation time: 72 h
Method: as §2

CAL-85-1 [9] = settings: 10000 nM; incubation time: 72 h
Method: as §2

DU-4475 [10] = settings: 10000 nM; incubation time: 72 h
Method: as §2

HDQ-P1 [11] = settings: 10000 nM; incubation time: 72 h
Method: as §2

CAL-51 [12] = settings: 10000 nM; incubation time: 72 h
Method: as §2

SK-BR-3 = settings: 1000 nM; incubation time: 72 h
How it was run: (§3)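 Plates were quality-checked by Z'-factor and normalised to vehicle (100) and a positive kill control (0). The underlying assay incubated breast cancer cell lines for 72 h on 384-well plates with compound, then added 2.5 µl CellTiter-Blue for 2 h at 37 °C and read at 560/590 nm. The value is normalised viability at a single listed concentration of the series.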

HCC1937 = settings: 1000 nM; incubation time: 72 h
How it was run: as §3

HCC1599 = settings: 1000 nM; incubation time: 72 h
How it was run: as §3

MDA-MB-468 = settings: 1000 nM; incubation time: 72 h
How it was run: as §3

MDA-MB-453 [13] = settings: 30 nM; incubation time: 72 h
How it was run: as §3

MDA-MB-231 = settings: 1000 nM; incubation time: 72 h
How it was run: as §3

CAL-148 [14] = settings: 30 nM; incubation time: 72 h
How it was run: as §3

CAL-85-1 [15] = settings: 30 nM; incubation time: 72 h
How it was run: as §3

DU-4475 [16] = settings: 30 nM; incubation time: 72 h
How it was run: as §3

HCC1143 = settings: 1000 nM; incubation time: 72 h
How it was run: as §3

HDQ-P1 [17] = settings: 30 nM; incubation time: 72 h
How it was run: as §3

Hs578T = settings: 1000 nM; incubation time: 72 h
How it was run: as §3

CAL-120 = settings: 1000 nM; incubation time: 72 h
How it was run: as §3

MFM-223 = settings: 1000 nM; incubation time: 72 h
How it was run: as §3

BT-549 = settings: 1000 nM; incubation time: 72 h
How it was run: as §3

CAL-51 [18] = settings: 30 nM; incubation time: 72 h
How it was run: as §3

BT-474 = settings: 1000 nM; incubation time: 72 h
How it was run: as §3

CAL-148 [19] = settings: 3000 nM; incubation time: 72 h
Method: (§4)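 DSRT, CellTiter-Blue viability, 72 h incubation. Signal is normalised to DMSO and benzethonium chloride controls. Value is the normalised response at dose 8.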

CAL-85-1 [20] = settings: 3000 nM; incubation time: 72 h
Method: as §4

DU-4475 [21] = settings: 3000 nM; incubation time: 72 h
Method: as §4

Cn1cncc1[C@@](N)(c1ccc(Cl)cc1)c1ccc2c(c1)c(-c1cccc(Cl)c1)cc(=O)n2C [Tipifarnib]
normalised viability (MDA-MB-453 [1]): 49.1%
normalised viability (CAL-148 [2]): 42.9%
normalised viability (CAL-85-1 [3]): 62.8%
normalised viability (DU-4475 [4]): 40.6%
normalised viability (HDQ-P1 [5]): 66.6%
normalised viability (CAL-51 [6]): 59.9%
normalised viability (MDA-MB-453 [7]): 19.9%
normalised viability (CAL-148 [8]): 26.7%
normalised viability (CAL-85-1 [9]): 47.2%
normalised viability (DU-4475 [10]): 15.7%
normalised viability (HDQ-P1 [11]): 49.6%
normalised viability (CAL-51 [12]): 20.4%
normalised viability (SK-BR-3): 66.1%
normalised viability (HCC1937): 43.6%
normalised viability (HCC1599): 62.2%
normalised viability (MDA-MB-468): 95.5%
normalised viability (MDA-MB-453 [13]): 82.2%
normalised viability (MDA-MB-231): 61.4%
normalised viability (CAL-148 [14]): 74.1%
normalised viability (CAL-85-1 [15]): 70.1%
normalised viability (DU-4475 [16]): 69.3%
normalised viability (HCC1143): 59.1%
normalised viability (HDQ-P1 [17]): 68%
normalised viability (Hs578T): 69.2%
normalised viability (CAL-120): 47.4%
normalised viability (MFM-223): 67.7%
normalised viability (BT-549): 75.8%
normalised viability (CAL-51 [18]): 95.5%
normalised viability (BT-474): 84.4%
normalised viability (CAL-148 [19]): 42.6%
normalised viability (CAL-85-1 [20]): 65.2%
normalised viability (DU-4475 [21]): 42%
